# Data as given in US20080124287A1, “Cosmetic composition having whitening effect comprising extract of pulsatilla radix as main ingredient” (priority 2002, published 2008).
# “Also recorded” adds a separate entry of the source.
# How the values were obtained:
# [1] = test system: Tyrosinase; test: Measurement of inhibition action against tyrosinase; assay type: biochemical
# Experimental: Tyrosinase was purchased from Sigma Company. The enzyme was dissolved in […]. Sodium phosphate buffer (0.1 M, pH 6.0), a substrate of enzyme and adjusted 1.6 mg/ml of concentration to obtain an enzyme solution. Sample was dissolved in sodium phosphate buffer and the undissolved residue was filtered out. 0.7 ml of the buffer, 0.2 ml of sample and 0.1 ml (15.7 unit/ml) of the enzyme solution were mixed and after 60 seconds, absorbance was measured at 475 nm by spectrophotometer.
# By the following equation, inhibition ratio(%) of tyrosinase was calculated.
# Inhibition ratio(%) of tyrosinase=[1−(S−B)/C]×100
# wherein, • S: Test tube having enzyme and sample, • B: Test tube having sample, • C: Test tube having enzyme.
# [2] = Water solubility; assay type: physicochemical
# [3] = test system: liver spots of women; test: Whitening effect of preparation composed of ranunculin, deoxypodophyllotoxin and SB365 on clinical trial; assay type: in vivo, human; conditions: concluded from compositions with and without SB365
# Experimental: Pharmaceutical composition: 10 mg of ranunculin, 50 mg of deoxypodophyllotoxin, and 15 mg of SB365 were mixed well together with the base (19 g) to obtain pharmaceutical composition and the composition was rubbed on the area of liver spots three times a day till the time of curing.
# A composition from which SB365 which was not effective on tyrosinase was deleted was used. The composition were administered to five women (F, G, H, I, K) having liver spots.
Compound,inhibition against tyrosinase ([1]; at 0.03 μg/ml) [%],inhibition of activity of tyrosinase ([1]; at 0.03/g/ml) [%],water solubility [2],whitening effect in clinical trials [3],effect against tyrosinase (in words) [1]
COc1cc([C@@H]2c3cc4c(cc3C[C@H]3COC(=O)[C@@H]32)OCO4)cc(OC)c1OC [Deoxypodophyllotoxin],38,38,very low and low,–,–
"CC1OC(OC2C(O[C@H]3CC[C@@]4(C)C(CC[C@]5(C)C4CC=C4C6CC(C)(C)CC[C@]6(C(=O)O)CC[C@]45C)[C@]3(C)CO)OCC(OC3OC(CO)C(O)C(O)C3O)C2O)C(O)C(O)C1O (stereo partly drawn) [SB365, 3-O-α-L-ramnopyranosyl(1→2)-[β-D-glucopyranosyl(1→4)]-α-L-arabinopyranoside]",–,–,–,have whitening effect; also recorded: excellent whitening effect,not effective; also recorded: did not inhibit; also recorded: no effect
